# Source: patent US7820379B2, “Process for high throughput screening of CpG-based immuno-agonist/antagonist” (Coley Pharmaceutical GmbH, priority 2000, dated 2010)
# Biological target: T1, human TLR9 (Homo sapiens, UniProt Q9NR96, H530R/Q688R)
# T1 construct: expressed in transfected cells
# T1 sequence (Q9NR96 26-1032 H530R/Q688R): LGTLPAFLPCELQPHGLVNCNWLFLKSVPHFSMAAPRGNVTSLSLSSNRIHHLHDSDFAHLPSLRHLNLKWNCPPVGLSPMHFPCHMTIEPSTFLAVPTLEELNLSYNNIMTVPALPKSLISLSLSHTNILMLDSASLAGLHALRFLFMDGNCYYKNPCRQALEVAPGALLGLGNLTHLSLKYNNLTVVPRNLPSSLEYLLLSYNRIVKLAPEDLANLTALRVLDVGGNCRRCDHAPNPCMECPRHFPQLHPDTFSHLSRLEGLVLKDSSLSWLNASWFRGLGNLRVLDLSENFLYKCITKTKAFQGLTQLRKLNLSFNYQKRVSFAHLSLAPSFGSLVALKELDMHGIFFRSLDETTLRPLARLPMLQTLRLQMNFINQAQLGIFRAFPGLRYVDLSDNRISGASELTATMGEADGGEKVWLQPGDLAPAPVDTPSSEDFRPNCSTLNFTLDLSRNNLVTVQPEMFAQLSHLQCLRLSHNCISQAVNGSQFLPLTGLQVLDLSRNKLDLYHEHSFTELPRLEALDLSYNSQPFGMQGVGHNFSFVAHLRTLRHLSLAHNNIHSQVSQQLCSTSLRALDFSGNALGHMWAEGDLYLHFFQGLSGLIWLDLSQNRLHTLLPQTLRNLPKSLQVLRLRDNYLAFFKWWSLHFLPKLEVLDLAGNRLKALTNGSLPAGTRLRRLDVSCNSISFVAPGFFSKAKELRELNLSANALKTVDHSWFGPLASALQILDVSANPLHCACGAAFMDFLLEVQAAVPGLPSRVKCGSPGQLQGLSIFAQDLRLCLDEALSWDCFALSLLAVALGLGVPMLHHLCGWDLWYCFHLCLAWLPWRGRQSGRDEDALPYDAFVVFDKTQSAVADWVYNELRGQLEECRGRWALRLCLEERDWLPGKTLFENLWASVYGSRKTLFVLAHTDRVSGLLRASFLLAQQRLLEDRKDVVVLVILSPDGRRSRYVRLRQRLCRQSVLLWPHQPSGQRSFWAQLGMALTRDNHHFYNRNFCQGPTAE
# Test: NF-κB-luciferase activation in 293 cells transfected with human TLR9 (293-hTLR9-luc)
# Type: cell-based
# Conditions: 293 cells transiently transfected with hTLR9 and NF-κB-luc; 8 h; ODN 2 μM, LPS 100 ng/ml
# Description: Since NF-κB activation is central to the IL-1/TLR signal transduction pathway (Medzhitov R et al., Mol Cell 2:253-258 (1998); Muzio M et al., J Exp Med 187:2097-2101 (1998)), cells were transfected with hTLR9 or co-transfected with hTLR9 and a NF-κB-driven luciferase reporter construct. Human fibroblast 293 cells were transiently transfected with (FIG. 1A) hTLR9 and a six-times NF-κB-luciferase reporter plasmid (NF-κB-luc, kindly provided by Patrick Baeuerle, Munich, Germany) or (FIG. 1B) with hTLR9 alone. After stimulus with CpG-ODN (2006, 2 μM, […], SEQ ID NO:112), GpC-ODN (2006-GC, 2 μM, […], SEQ ID NO:118), LPS (100 ng/ml) or media, NF-κB activation by luciferase readout (8 h, FIG. 1A) or IL-8 production by ELISA (48 h, FIG. 1B) were monitored. Results are representative of three independent experiments.
# To generate stable clones expressing human TLR9, murine TLR9, or either TLR9 with the NF-κB-luc reporter plasmid, 293 cells were transfected in 10 cm plates (2×10^6 cells/plate) with 16 μg of DNA and selected with 0.7 mg/ml G418 (PAA Laboratories GmbH, Cölbe, Germany). The clones were also screened for IL-8 production or NF-κB-luciferase activity after stimulation with ODN. Four different types of clones were generated. • 293-hTLR9-luc: expressing human TLR9 and 6-fold NF-κB-luciferase reporter • 293-mTLR9-luc: expressing murine TLR9 and 6-fold NF-κB-luciferase reporter • 293-hTLR9: expressing human TLR9 • 293-mTLR9: expressing murine TLR9 […]
# Because stable TLR9 transfectants mirrored primary cell responsiveness to CpG-DNA (FIGS. 4 and 5), it was hypothesized that stable transfectants could potentially discern species-specific CpG-motifs through TLR9 receptors. Therefore 293-hTLR9-luc (expressing human TLR9 and 6-fold NF-κB-luc reporter), 293-mTLR9-luc (expressing murine TLR9 and 6-fold NF-κB-luc reporter), 293-hTLR9 (expressing human TLR9) and 293-mTLR9 (expressing murine TLR9) clones were tested for CpG-DNA motif responsiveness. […] Depicted are both NF-κB-driven luciferase and IL-8 production as readout. […] After lysis of the cells luciferase can be detected photometrically based on an enzymatic reaction by luciferase which creates photons. IL-8 production was monitored using enzyme-linked immunosorbent assay (ELISA). FIG. 11 depicts clones stimulated with ODN 2006 (filled circle), ODN 2006-GC (open circle), ODN 1668 (filled triangle) or ODN 1668-GC (open triangle) at indicated concentrations and NF-κB activation or IL-8 production were measured after 10 and 48 hours, respectively. Results shown in FIG. 11 are representative of three independent experiments. Strikingly, CpG-motif sequence specificity was conferred in a species-specific manner by TLR9. Additionally, the half-maximal concentration for either 2006 or 1668 appears nearly the same as those determined on primary cells (compare FIG. 10 and FIG. 11).
# Although 2006 and 1668 are discussed in terms of CpG-motif differences, they are very different in several aspects (see Table 5 for comparison). The lengths are different, 24 versus 20 nucleotides, and 2006 has four CG dinucleotides compared to one in 1668. Additional differences are the CG position relative to the 5′ and 3′ ends and also 5′ sequence differences. In order to determine if motif specificity is a quality of the motif and not the global sequence environment, for this experiment several sequences were produced holding these variables constant. As a starting point, the 1668 sequence was modified by converting the central C to T and the distal TG to CG, thereby creating a second CG in the resulting sequence 5000 (SEQ ID NO:130, Table 5). Then point nucleotide changes were made, progressing toward a 2006-like sequence, 5007 (SEQ ID NO:98). The ODN 5002 (SEQ ID NO:132) is most like 1668 with the exception that C's at positions 12 and 19 have been converted to T's. […]
row,Substance,NF-κB activation by luciferase readout
1,TCGTCGTTTTGTCGTTTTGTCGTT [ODN 2006],responded
2,lipopolysaccharide [LPS],not

# Same assay, conditions: CpG-ODN 2006 compared with CpG-ODN 1668
row,Substance,human TLR9 signaling response
1,TCGTCGTTTTGTCGTTTTGTCGTT [ODN 2006],significantly stronger

# Same assay, conditions: ODN concentration of half-maximal activation; 293-hTLR9-luc cells, NF-κB-driven luciferase readout, 12 hours; read-out: 293-hTLR9 Kac
row,Substance,EC50 [µM]
1,"TCCATGAGCTTCCTGATGCT (listed as DNA, chemistry not fully specified) [ODN 1668-GC]",> 10
2,"TCCATGACGTTCTTGACGTT (listed as DNA, chemistry not fully specified) [ODN 5001]",7
3,"TCCATGACGTTCTTGACGCT (listed as DNA, chemistry not fully specified) [ODN 5000]",10
4,"TCCATGTCGTTCTTGATGTT (listed as DNA, chemistry not fully specified) [ODN 5004]",5
5,"TCCATGTCGTTTTTGTTGTT (listed as DNA, chemistry not fully specified) [ODN 5006]",3
6,TCGTCGTTTTGTCGTTTTGTCGTT [ODN 2006],0.4
7,"TCCATGACGTTCCTGATGCT (listed as DNA, chemistry not fully specified) [ODN 1668]",> 10
8,"TCCATGTCGTTTTTGATGTT (listed as DNA, chemistry not fully specified) [ODN 5005]",3
9,"TCCATGTCGTTTTTGTCGTT (listed as DNA, chemistry not fully specified) [ODN 5007]",0.7
10,"TGCTGCTTTTGTGCTTTTGTGCTT (listed as DNA, chemistry not fully specified) [ODN 2006-GC]",> 10
